According to ChEMBL document CHEMBL5620372, “Pharmacological inhibition of ferroptosis as a therapeutic target for sepsis-associated organ damage” (Eur J Med Chem, 2023):
Each block holds one molecule with its values, some of them ahead of it.

How the values were obtained:
[1] = Cmax in human plasma; type: ADME, cell-free
[2] = Oral bioavailability in human at 2 mg/kg; type: ADME, organism-based; conditions: in vivo
[3] = Drug recovery in rat feces at 10 mg/kg, IG measured after 36 hrs; type: ADME, organism-based; conditions: faeces, po, read-out: Drug recovery
[4] = Drug recovery in rat urine at 10 mg/kg, IG measured after 36 hrs; type: ADME, organism-based; conditions: po, read-out: Drug recovery
[5] = Oral bioavailability in human; type: ADME, organism-based; conditions: in vivo
[6] = Half life in human plasma; type: ADME, cell-free

- Cmax [1]: 140 ng/mL
- bioavailability [2]: 7%
Structure (SMILES): O=c1c(-c2ccc(O)cc2)coc2c([C@@H]3O[C@H](CO)[C@@H](O)[C@H](O)[C@H]3O)c(O)ccc12 [PUERARIN]

- dose excreted at 36 h [3]: 0.07%
- dose excreted at 36 h [4]: 0.15%
Structure (SMILES): Oc1ccc(/C=C/c2cc(O)cc(O)c2)cc1 [RESVERATROL]

- bioavailability [5]: 86%
- half-life [6]: 12 min
Structure (SMILES): CC(=O)Nc1ccc(O)cc1 [ACETAMINOPHEN]
